In US20220372014A1, “NEUROPROTECTIVE COMPOUNDS AND METHODS OF USE THEREOF” (The Johns Hopkins University, priority 2019, published 2022):

How the values were obtained:
MIF = target: T1, MIF (Homo sapiens, UniProt P14174); experiment: Nuclease assay of Example 3 (MIF inhibitory activity, Table 4); format: biochemical; details: nuclease assay of Example 3
T1 sequence (P14174 1-115): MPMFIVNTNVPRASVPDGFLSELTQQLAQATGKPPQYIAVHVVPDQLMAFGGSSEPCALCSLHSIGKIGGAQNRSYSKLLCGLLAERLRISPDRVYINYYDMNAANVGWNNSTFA
Summary of the method: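 Human genomic DNA (200 ng), pcDNA (200 ng) or PS^30-type substrates (1 μM) were incubated with MIF (0.25-8 μM final) in 10 mM Tris-HCl pH 7.0, 10 mM MgCl2, 1 mM DTT at 37 °C for 1 h (pcDNA, small substrates) or 4 h (genomic DNA). Cleavage was assessed by agarose or PAGE electrophoresis with EtBr staining and chemiluminescent detection of biotin-labelled DNA.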

SH-SY5Y cells = experiment: MNNG-induced parthanatic cell death in SH-SY5Y cells (Alamar blue cell viability); format: cell-based; details: for inhibition of MNNG-induced parthanatic cell death: 50 μM MNNG for 15 min, viability after 24 h; for IC50: Homo sapiens, SH-SY5Y, read-out: IC50, MNNG-induced parthanatic cell death
Text: We developed an assay to screen for PAAN/MIF nuclease inhibitors. Single-stranded PAAN/MIF nuclease DNA substrate (FIG. 10A) was amine modified on the 5′ end and immobilized on a plate. Hybridization with a biotin-labeled complementary oligonucleotide followed by addition of streptavidin conjugated horseradish peroxidase enzyme (HRP) leads to retention of HRP on the surface within each well in the presence of intact PAAN/MIF nuclease DNA substrate, which can be quantitatively detected through colorimetric change at 450 nm using the HRP substrate 3,3′,5,5′-tetramethylbenzidine (TMB). In the presence of WT PAAN/MIF, there is reduced signal, indicative of cleavage of the PAAN/MIF nuclease substrate, while the signal is not attenuated without recombinant PAAN/MIF (FIGS. 1 and 10B). […] Thus, the rapafucin library containing 45,000 macrocyclic compounds in 3,000 pools of 15 compounds was screened using this assay. […] Several pools were identified that inhibit PAAN/MIF nuclease activity from the primary screen (FIG. 4A). […] Nine pools of compounds were identified that both inhibit PAAN/MIF cleavage of the substrate and protect against MNNG-induced parthanatic cell death by greater than 70% (FIG. 10D). […] Next, the 90 individual compounds in the 6 pools were synthesized and further assessed for inhibition of PAAN/MIF nuclease activity and MNNG-induced parthanatic cell death. Among them 12 compounds (compounds 16-18, 26-28, 41, 56, 66, 67, 76, and 77) were identified that block MIF nuclease activity and MNNG-induced parthanatic cell death by greater than 60% (FIG. 10F). Dose dependence (0.1 to 1.0 μM) were assessed for the 12 compounds against MNNG-induced parthanatic cell death (FIG. 11A and Table 2) and inhibition of PAAN MIF nuclease activity against the RF (FIG. 111B) and PS30 substrates (FIG. 11C).
Cell culture, transfection, primary neuronal culture and treatment. SH-SY5Y cells (ATCC) were cultured in DMEM containing 10% fetal bovine serum and penicillin/streptomycin at 37° C. under 5% C02. The cells were transfected using PolyFect reagent (Qiagen). Parthanatos was induced by the treatment of 50 μM MNNG for 15 min in SH-SY5Y cells. ABT-888 or PAAN/MIF inhibitors were pretreated with indicated concentration 1 h before MNNG treatment and cell death were assessed after 24 h. Primary cortical neurons from WT, PAAN/MIF KO, E22Q KI or P1G KI embryos were prepared as previously described See Kam et al. (2018) Science 362:eaat8407. Briefly, the cortex was dissected and cultured at embryonic day 16 in neurobasal media supplemented with B-27, 0.5 mM L-glutamine, penicillin and streptomycin (Invitrogen). Primary neurons were infected with AAV2-control, AAV2-PAAN/MIF WT, AAV2-PAAN/MIF E22Q, AAV2-PAAN/MIF E22A or AAV2-MIF P1G (ViGene Biosciences) at days in vitro (DIV) 4-5. ABT-888 or PAAN/MIF inhibitors were applied to neurons 1 h before α-syn PFF treatment. The neuron growth medium was replaced with fresh medium alone or including inhibitors every 3-4 days. α-syn PFF was added at DIV 7 and further incubated for indicated times followed by the cell death assay or biochemical experiments.
Cell death and viability assessment. Primary cultured cortical neurons were treated with 5 μg/ml of α-syn PFF for 14 days and cell death was determined by staining of all nuclei with 7 μM Hoechst 33342 and dead cell nuclei with 2 μM propidium iodide (PI) (Invitrogen). The numbers of total and dead cells were counted with the Axiovision 4.6 software (Carl Zeiss). Cell viability was determined by fluorescence at an excitation wavelength 570 nm and an emission wavelength 585 nm using Alamar Blue (Invitrogen). […]

Row | SMILES | (%) inhibition of MIF nuclease activity (MIF) [%] | inhibition of MNNG-induced parthanatic cell death (SH-SY5Y cells) | IC50 (SH-SY5Y cells) [µM] | protection against MNNG-induced parthanatic cell death in PAAN/MIF mutant cells (SH-SY5Y cells; PAAN/MIF KO SH-SY5Y cells expressing L61A, 60-63A or N72A, 1 μM)
1 | COc1ccc(CC[C@H]2OC(=O)[C@@H]3CCCCN3C(=O)C(=O)C(C)(C)COC(=O)C=CCCN(C)C(=O)CNC(=O)[C@H](C(C)C)N(C)C(=O)[C@@H](Cc3ccccc3)NC(=O)[C@H](CC(C)C)N(C)C(=O)CCC(=O)Nc3cccc2c3)cc1OC [compound 76] | 73.5 | prominently blocked | – | –
2 | COc1ccc(CC[C@H]2OC(=O)[C@@H]3CCCCN3C(=O)C(=O)C(C)(C)COC(=O)C=CCCN(C)C(=O)[C@@H]3CCCN3C(=O)[C@H](COC(C)(C)C)N(C)C(=O)C(c3ccccc3)NC(=O)CN(C)C(=O)COc3cccc2c3)cc1OC (stereo partly drawn) [compound 41] | 82.0 | prominently blocked | – | –
3 | COc1ccc(CC[C@H]2OC(=O)[C@@H]3CCCCN3C(=O)C(=O)C(C)(C)COC(=O)C=CCCN(C)C(=O)[C@@H]3CCCN3C(=O)[C@H](CO)N(C)C(=O)C(c3ccccc3)NC(=O)[C@H](C)N(C)C(=O)COc3cccc2c3)cc1OC (stereo partly drawn) [compound 97] | −5.3 | has no effect | – | –
4 | COc1ccc(CC[C@H]2OC(=O)[C@@H]3CCCCN3C(=O)C(=O)C(C)(C)COC(=O)C=CCCN(C)C(=O)[C@@H]3CCCN3C(=O)[C@H](COC(C)(C)C)N(C)C(=O)C(c3ccccc3)NC(=O)[C@H](C)N(C)C(=O)COc3cccc2c3)cc1OC (stereo partly drawn) [compound 56] | 70.8 | prominently blocked | 0.52 | –
5 | COc1ccc(CC[C@H]2OC(=O)[C@@H]3CCCCN3C(=O)C(=O)C(C)(C)COC(=O)C=CCCN(C)C(=O)[C@@H]3CCCN3C(=O)[C@H](COC(C)(C)C)N(C)C(=O)C(c3ccccc3)NC(=O)[C@H](C)N(C)C(=O)COc3cc(F)cc2c3)cc1OC (mixture of isomers) [compound 121] | 71.2 | blocked | 0.28 | significantly reduced
6 | COc1ccc(CC[C@H]2OC(=O)[C@@H]3CCCCN3C(=O)C(=O)C(C)(C)COC(=O)C=CCCN(C)C(=O)[C@H](C)NC(=O)[C@H](C(C)C)N(C)C(=O)[C@@H](Cc3ccccc3)NC(=O)[C@H](CC(C)C)N(C)C(=O)CCC(=O)Nc3cccc2c3)cc1OC [compound 77] | 75.5 | prominently blocked | – | –
